Test results: ChEMBL document CHEMBL3784926, “Concise total synthesis of water soluble metatacarboline A, C, D, E and F and its anticancer activity” (Eur J Med Chem, 2016)
Converted amounts (≈) assume the structure as drawn. The source made the active and inactive calls. The calls are words filed in the database; no cut-off is given here.

What was measured:
C6 [1] = test: Antiproliferative activity against rat C6 cells assessed as cell viability after 24 hrs by MTT assay; type: functional, cell-based; conditions: for IC50: C6, 24 h
[2] = Solubility of the compound in water at 0.01 g after 5 mins; type: physicochemical
C6 [3] = test: Cell cycle arrest in rat C6 cells assessed as accumulation at G2/M phase at 40 uM after 24 hrs by propidium iodide staining based flow cytometric analysis (reference value: 20.2%); type: functional
C6 [4] = test: Cell cycle arrest in rat C6 cells assessed as accumulation at G2/M phase at 120 uM after 24 hrs by propidium iodide staining based flow cytometric analysis (reference value: 20.2%); type: functional
C6 [5] = test: Cell cycle arrest in rat C6 cells assessed as accumulation at G2/M phase at 200 uM after 24 hrs by propidium iodide staining based flow cytometric analysis (reference value: 20.2%); type: functional
C6 [6] = test: Cell cycle arrest in rat C6 cells assessed as accumulation at G2/M phase at 400 uM after 24 hrs by propidium iodide staining based flow cytometric analysis (reference value: 20.2%); type: functional
C6 [7] = test: Antiproliferative activity against rat C6 cells assessed as inhibition of colony forming ability at 200 uM after 7 days by methylene blue staining; values are per cent of control; conditions: C6, 168 h
C6 [8] = test: Antiproliferative activity against rat C6 cells assessed as inhibition of colony forming ability at 400 uM after 7 days by methylene blue staining; values are per cent of control; conditions: C6, 168 h
C6 [9] = test: Antiproliferative activity against rat C6 cells assessed as inhibition of colony forming ability at 600 uM after 7 days by methylene blue staining; values are per cent of control; conditions: C6, 168 h
C6 [10] = test: Cell cycle arrest in rat C6 cells assessed as accumulation at sub G0/G1 phase at 100 uM after 24 hrs by propidium iodide staining based flow cytometric analysis (reference value: 0.6 %); type: functional
C6 [11] = test: Cell cycle arrest in rat C6 cells assessed as accumulation at sub G0/G1 phase at 200 uM after 24 hrs by propidium iodide staining based flow cytometric analysis (reference value: 0.6 %); type: functional
C6 [12] = test: Cell cycle arrest in rat C6 cells assessed as accumulation at sub G0/G1 phase at 400 uM after 24 hrs by propidium iodide staining based flow cytometric analysis (reference value: 0.6 %); type: functional
C6 [13] = test: Induction of apoptosis in rat C6 cells assessed as DNA fragmentation at 300 uM after 24 hrs by TUNEL assay relative to control; type: functional, cell-based
C6 [14] = test: Induction of apoptosis in rat C6 cells assessed as decrease in Bcl2 expression at 100 to 600 uM after 24 hrs by Western blot analysis; type: functional, cell-based
C6 [15] = test: Induction of apoptosis in rat C6 cells assessed as decrease in Bclxl expression at 100 to 600 uM after 24 hrs by Western blot analysis; type: functional, cell-based
C6 [16] = test: Induction of apoptosis in rat C6 cells assessed as decrease in pro-caspase 8 expression at 100 to 600 uM after 24 hrs by Western blot analysis; type: functional, cell-based
C6 [17] = test: Induction of apoptosis in rat C6 cells assessed as cleaved caspase 3 at 100 to 600 uM after 24 hrs by Western blot analysis; type: functional, cell-based
C6 [18] = test: Induction of apoptosis in rat C6 cells assessed as PARP cleavage at 100 to 600 uM after 24 hrs by Western blot analysis; type: functional, cell-based
C6 [19] = test: Induction of apoptosis in rat C6 cells assessed as upregulation of p53 expression at 100 to 600 uM after 24 hrs by Western blot analysis; type: functional, cell-based
C6 [20] = test: Antiproliferative activity against rat C6 cells assessed as inhibition of colony forming ability at 40 uM after 7 days by methylene blue staining; values are per cent of control; conditions: C6, 168 h
C6 [21] = test: Antiproliferative activity against rat C6 cells assessed as inhibition of colony forming ability at 120 uM after 7 days by methylene blue staining; values are per cent of control; conditions: C6, 168 h
C6 [22] = test: Antiproliferative activity against rat C6 cells assessed as inhibition of colony forming ability at 800 uM after 7 days by methylene blue staining; values are per cent of control; conditions: C6, 168 h
[23] = Solubility of the compound in water after 5 mins; type: physicochemical

In the case of `O=C(N[C@@H](CO)C(=O)O)c1cc2c([nH]c3ccccc32)c(CCC(=O)N2CCC[C@H]2C(=O)O)n1`, the Activity (C6 [1]) is reported as “Dose-dependent effect” and the solubility [2] is reported as “soluble”.

With `CC(C)[C@H](NC(=O)c1cc2c([nH]c3ccccc32)c(CCC(=O)N2CCC[C@H]2C(=O)O)n1)C(=O)O` the Activity (C6 [1]) was “Dose-dependent effect”, the IC50 (C6 [1]) was 250 µM and the Activity (C6 [3]) was 24.4%. For the same compound, the Activity (C6 [4]) was 22.8%, the Activity (C6 [5]) was 18.3% and the Activity (C6 [6]) was 23.9%. The solubility [2] was “soluble”, the colony formation (% of control) at 200 µM (C6 [7]) was 55% and the colony formation (% of control) at 400 µM (C6 [8]) was 35%. For the same compound, the colony formation (% of control) at 600 µM (C6 [9]) was 15%.

In the case of `C[C@H](O)[C@H](NC(=O)c1cc2c([nH]c3ccccc32)c(CCC(=O)N2CCC[C@H]2C(=O)O)n1)C(=O)O`, the Activity (C6 [1]) is reported as “Dose-dependent effect”, the IC50 (C6 [1]) is reported as 150 µM and the Activity (C6 [10]) is reported as 4.7%. For the same compound, the Activity (C6 [11]) was 43.7%, the Activity (C6 [12]) was 95.1% and the Activity (C6 [13]) was “Active”. For the same compound, the Activity (C6 [14]) was “Active”, the Activity (C6 [15]) was “Active” and the Activity (C6 [16]) was “Active”. The Activity (C6 [17]) was “Active”, the Activity (C6 [18]) was “Active” and the Activity (C6 [19]) was “Active”. For the same compound, the solubility [2] was “soluble”, the colony formation (% of control) at 40 µM (C6 [20]) was 85% and the colony formation (% of control) at 120 µM (C6 [21]) was 75%. It also gave a colony formation (% of control) at 200 µM (C6 [7]) of 45%, a colony formation (% of control) at 400 µM (C6 [8]) of 25% and a colony formation (% of control) at 800 µM (C6 [22]) of 5%.

For `C[C@H](NC(=O)c1cc2c([nH]c3ccccc32)c(CCC(=O)N2CCC[C@H]2C(=O)O)n1)C(=O)O`, the Activity (C6 [1]) was “Dose-dependent effect” and the solubility [2] was “soluble”.

In the case of `O=C(O)c1cc2c([nH]c3ccccc32)c(CCC(=O)N2CCC[C@H]2C(=O)O)n1`, the Activity (C6 [1]) is reported as “Dose-dependent effect” and the solubility at 5 min [23] is reported as 10000 µg/mL (≈ 26.2 mM).
